Data reported in patent US7098216B2, “Thiazolopyrimidines useful as TNFα inhibitors” (The Regents of the University of California, priority 1999, dated 2006).
Like-named read-outs stand apart in the source and are kept apart here.

What was measured:
[1] = system: TNFα plasma concentration; test: Oral 8a dose response on LPS-induced plasma TNFα in mice; format: in vivo, ICR mice
Experimental: ICR mice were dosed orally at 25, 50 and 100 mg/kg of 8a in cyclodextrin, prepared as in Example 7. After 1 hr., each mouse was injected with E. coli LPS (1 μg/mouse). Two hours later, 250 μl samples of blood were obtained by retro-orbital bleeding without anesthetization. The blood was heparinized, centrifuged for 10 min. at 10 K rpm (4° C.) and TNFα determined by ELISA. […] The two bars at the top of the figure show the baseline levels of TNFα in the mouse plasma, which were undetectable, and the effects of 8a administered alone, which were negligible.

Jurkat cell line = test: Jurkat cell growth, MTT assay; format: cell-based, human; settings: concentration below 50 μM, 72 h, MTT (FIG. 3)
Experimental: In this experiment, cells of the continuous human lymphoblastoid Jurkat cell line were suspended at 1×10^5/ml in complete medium containing various amounts of 8a and 8b dissolved in DMSO. Seventy-two hours later the cell density was assessed using the MTT assay, which measures the reduction of a tetrazolium dye. The cell densities were compared to control cultures lacking any additional drugs.

[2] = system: TNFα production in human monocytes; test: Inhibition of LPS-induced TNFα production in human monocytes (ELISA); format: cell-based; settings: Monocyte
Experimental: (§1) Peripheral blood mononuclear cells were isolated from normal human blood on Hypaque-Ficoll density gradients. 100 μl aliquots of monocytes were placed onto 96 well microtiter plates at a density of […] in RPMI-1640 medium containing 10% autologous plasma. After incubation for 24 hrs., various concentrations of the test compound in DMSO were added to the plated cells in a volume of 100 μl and incubated for 1 hr. After incubation, […] of LPS was added to each well.
(§2) Eighteen hours after exposure of the plated cells to LPS, 100 μl of medium was collected from each well and assayed (by ELISA, R&D Systems) for release of IL-1 and TNFα, using recombinant human TNF as a standard (n=5). The sensitivity of the assay ranged from 10–100 pg/ml.

TNFα in the plasma = test: Time course of TNFα inhibition after oral 8a in LPS-injected mice; format: in vivo, ICR mice; settings: 100 mg/kg by gavage, LPS 24 hours later (FIG. 6)
Experimental: The purpose of these experiments was to determine how long after administration of compound 8a by gavage could its inhibitory effects on LPS-induced TNFα production be detected. Accordingly, all the ICR in this instance were given 8a at a dosage of 100 mg/kg by gavage. Then at 1, 4, 10, and 24 hours later, each animal received 1 μg/ml IP LPS, and two hours later (i.e., at 3, 6, 12, and 26 hours), blood was removed for TNFα ELISA.

adjuvant arthritis = test: Adjuvant arthritis in Lewis rats; format: in vivo; settings: 100 mg/kg by gavage daily
Experimental: Since TNFα antagonists have shown considerable value in the treatment of rheumatoid arthritis, compound 8a was evaluated in an animal model that is TNFα dependent. Adjuvant arthritis is an acute inflammatory disease induced in certain rat strains by the administration of heat-killed mycobacteria dispersed in […]. The disease is manifest by severe joint swelling, mainly of the ankles and feet.
Two groups of seven Lewis rats each were immunized intradermally with 5 mg of heat-killed mycobacterium tuberculosis emulsified in incomplete Freund's adjuvant. One day later, one group of animals (N=7) received 100 mg/kg of 8a by gavage. Another group of animals received no treatment. The oral dosing was continued every day up to day 30. […] The mean arthritis score can vary from 0 to 4 for each limb, yielding a maximum score of 16. Note that the untreated animals (group 1) achieved a mean arthritis score of 10 on day 18. In contrast, the treated animals reach a mean arthritis score of 5, for 50% inhibition.

[3] = system: IL-1β production by human monocytes; test: Inhibition of LPS-induced IL-1β production in human monocytes (ELISA); format: cell-based; settings: Monocyte; human monocytes stimulated with LPS (FIG. 2); read-out: 50% inhibitory dose, IL-1 production
Experimental: as §1, §2
FIG. 2 summarizes the effects of 8b and 8a on the production of IL-1β by human monocytes stimulated with LPS, under the same conditions used for the TNFα study.

[4] = Acute toxicity testing in ICR mice, IP; format: in vivo; settings: five daily IP injections at 100 mg/kg, 30 days of observation
Experimental: ICR mice (ca. 20 g) were injected IP for 5 days with 50 mg/kg, and 100 mg/kg of each of 8a and 8b dispersed in aqueous hydroxypropyl β-cyclodextrin (50% w/v).

[5] = human monocytes, LPS, 18 h, ELISA (FIG. 1), read-out: IC50, TNFα production

| IC50 [2, 5] [nM] | Structure (SMILES) | effect on TNFα plasma concentration ([1]; 25 mg/kg oral, LPS 1 h later, blood 2 h after LPS (FIG. 5)) | effect on TNFα plasma concentration ([1]; 50 mg/kg oral, compared with 25 mg/kg (FIG. 5)) | effect of 8a administered alone on plasma TNFα ([1]; without LPS (FIG. 5)) | growth inhibitory activity on Jurkat cells (Jurkat cell line) | IC50 ([2]; Homo sapiens, 18 h, read-out: IC50, TNFα production) [nM] | IC50 ([2]; Homo sapiens, read-out: TNF inhib. (IC50)) [nM] | accumulation of TNFα in plasma of LPS-injected mice (TNFα in the plasma) | mean arthritis score (adjuvant arthritis; maximum score 16, untreated 10 on day 18 (FIG. 7)) | inhibition at 100 mg/kg (adjuvant arthritis; Rattus norvegicus, po, versus untreated, read-out: inhibition of arthritis score) [%] | IC50 [3] [nM] | weight change or lethargy [4] |
| --- | --- | --- | --- | --- | --- | --- | --- | --- | --- | --- | --- | --- |
|  | CCOC(=O)CCCn1c(=O)c2sc(N)nc2n(C)c1=O [8a, Ethyl 4-[2-Amino-4-methyl-5,7-dioxothiazolo [4,5-d]pyrimidin-6-yl]-butanoate] | significant inhibitory effect | greater | negligible | neither 8b nor 8a had significant growth inhibitory activity | 676 | 676 | completely inhibited | 5 | 50 | 1000 to 3000 | no weight change or detectable lethargy |
| 1150 | Fc1ccc(-c2ncn(CCCN3CCOCC3)c2-c2ccncc2)cc1 [SB-210313, reference compound] |  |  |  |  |  |  |  |  |  |  |  |
| 2500 | COc1ccc(C2CNC(=O)C2)cc1OC1CCCC1 (stereo not shown) [rolipram, reference compound] |  |  |  |  |  |  |  |  |  |  |  |
